Results taken from US3939143A, “1-N-isoserylkanamycins and the production thereof” (Zaidan Hojin Biseibutsu Kagaku Kenkyu Kai, priority 1973, dated 1976).
In brackets after ≈: the same amount, converted by molar mass. Read-outs that look alike come from different tables or passages of the source.

Tests used:
[1] = system: gram-negative and gram-positive bacteria; test: antibacterial activity, in words; type: cell-based; conditions: optically active L- or D-isoseryl form
Protocol: (§1) The minimum inhibitory concentrations (mcg/ml) of 1-N-DL-isoserylkanamycin,1-N-DL-isoserylkanamycin B and 1-N-DL-isoseryl-3',4'-dideoxykanamycin B against various microorganisms were determined according to the serial dilution method using nutrient agar medium at 37°C, the estimation being effected after 18 hours incubation. For comparison purposes, the minimum inhibitory concentrations of kanamycin, kanamycin B and 3',4'-dideoxykanamycin B were also determined in the same manner and under the same conditions as mentioned above.
(§2) The antibacterial spectra of 1-N-DL-isoseryl-kanamycin (abbreviated as 1-IS-KM), 1-N-DL-isoseryl-kanamycin B (abbreviated as 1-IS-KMB) and 1-N-DL-isoseryl-3',4'-dideoxykanamycin B (abbreviated as 1-IS-DKB) are shown in the following table together with those of kanamycin (abbreviatedas KM), kanamycin B (abbreviated as KMB) and 3',4'-dideoxykanamycin B (abbreviated as DKB).

[2] = system: mice; test: acute toxicity upon intravenous injection in mice; type: in vivo; conditions: optically active L- or D-isoseryl form
[3] = system: phosphotransferase; conditions: phosphorylation of the 3'-hydroxyl group; cited from earlier work
[4] = system: Escherichia coli JR66/W677; conditions: nucleotidyltransferase-producing resistant strain; cited from earlier work
[5] = system: kanamycin-resistant strains; conditions: phosphotransferase-producing resistant strains; cited from earlier work
[6] = system: Corynebacterium bovis 1810; test: Minimum inhibitory concentration, serial dilution on nutrient agar; type: cell-based; conditions: read-out: Minimum Inhibitory Concentration
[7] = system: Escherichia coli LA290 R55; test: as above; type: cell-based; conditions: LA290R55, 18 h, read-out: Minimum Inhibitory Concentration
[8] = system: Escherichia coli W677; test: as above; type: cell-based; conditions: read-out: Minimum Inhibitory Concentration
[9] = system: Escherichia coli K-12 ML 1630; test: as above; type: cell-based; conditions: K12ML1630, 37°C, 18 hours
Protocol: as §1, §2

[10] = system: Pseudomonas aeruginosa A3; test: as above; type: cell-based; conditions: 37°C, 18 hours
Protocol: as §1, §2

[11] = system: Shigella sonnei JS 11746; test: as above; type: cell-based; conditions: JS11746, 37°C, 18 hours
Protocol: as §1, §2

[12] = system: Shigella flexneri 4b JS 11811; test: as above; type: cell-based; conditions: 4BJS11811, 37°C, 18 hours
Protocol: as §1, §2

[13] = system: Pseudomonas aeruginosa TI-13; test: as above; type: cell-based; conditions: TI13, 37°C, 18 hours
Protocol: as §1, §2

[14] = system: Escherichia coli JR66/W677; test: as above; type: cell-based; conditions: JR66/W677, 37°C, 18 hours, read-out: Minimum Inhibitory Concentration
[15] = system: Escherichia coli LA290 R64; test: as above; type: cell-based; conditions: LA290R64, 18 h, read-out: Minimum Inhibitory Concentration
[16] = system: Salmonella typhosa T-63; test: as above; type: cell-based; conditions: Salmonella enterica, 18 h, read-out: Minimum Inhibitory Concentration
[17] = system: Salmonella enteritidis 1891; test: as above; type: cell-based; conditions: Salmonella enterica, 18 h, read-out: Minimum Inhibitory Concentration
[18] = system: Escherichia coli K-12 ML 1629; test: as above; type: cell-based; conditions: K12ML1629, 37°C, 18 hours, read-out: Minimum Inhibitory Concentration
[19] = system: Pseudomonas aeruginosa GN315; test: as above; type: cell-based; conditions: read-out: Minimum Inhibitory Concentration
[20] = system: Bacillus subtilis PCI 219; test: as above; type: cell-based; conditions: read-out: Minimum Inhibitory Concentration
[21] = system: Mycobacterium smegmatis ATCC 607; test: as above; type: cell-based; conditions: Mycolicibacterium smegmatis, read-out: Minimum Inhibitory Concentration
[22] = system: nucleotidyltransferase; conditions: adenylylation of 2"-hydroxyl group with ATP; cited from earlier work
[23] = system: Escherichia coli K-12; test: Minimum inhibitory concentration, serial dilution on nutrient agar; type: cell-based; conditions: read-out: Minimum Inhibitory Concentration
[24] = system: Klebsiella pneumoniae PCI 602; test: as above; type: cell-based; conditions: read-out: Minimum Inhibitory Concentration
[25] = system: Shigella dysenteriae JS 11910; test: as above; type: cell-based; conditions: JS11910, 18 h, read-out: Minimum Inhibitory Concentration
[26] = system: Escherichia coli LA290 R56; test: as above; type: cell-based; conditions: LA290R56, 18 h, read-out: Minimum Inhibitory Concentration
[27] = system: Pseudomonas aeruginosa No.12; test: as above; type: cell-based; conditions: read-out: Minimum Inhibitory Concentration
[28] = system: Klebsiella pneumoniae 22 No. 3038; test: as above; type: cell-based; conditions: read-out: Minimum Inhibitory Concentration
[29] = system: Staphylococcus aureus FDA 209P; test: as above; type: cell-based; conditions: FDA209P, read-out: Minimum Inhibitory Concentration
[30] = system: Bacillus anthracis; test: microbe, parasite or virus in culture; type: cell-based; conditions: 18 h, read-out: Minimum Inhibitory Concentration
[31] = system: Staphylococcus aureus Smith; test: Minimum inhibitory concentration, serial dilution on nutrient agar; type: cell-based; conditions: read-out: Minimum Inhibitory Concentration
[32] = system: Escherichia coli K-12 ML 1410 R81; test: as above; type: cell-based; conditions: 18 h, read-out: Minimum Inhibitory Concentration
[33] = system: Bacillus subtilis NRRL B-558; test: as above; type: cell-based; conditions: read-out: Minimum Inhibitory Concentration
[34] = system: Sarcina lutea PCI 1001; test: as above; type: cell-based; conditions: Micrococcus luteus, read-out: Minimum Inhibitory Concentration
[35] = system: Escherichia coli NIHJ; test: as above; type: cell-based; conditions: read-out: Minimum Inhibitory Concentration
[36] = system: Pseudomonas aeruginosa 99; test: as above; type: cell-based; conditions: read-out: Minimum Inhibitory Concentration
[37] = system: Staphylococcus aureus Terajima; test: as above; type: cell-based; conditions: read-out: Minimum Inhibitory Concentration
[38] = system: Bacillus cereus ATCC 10702; test: as above; type: cell-based; conditions: read-out: Minimum Inhibitory Concentration
[39] = system: Escherichia coli K-12 ML 1410; test: as above; type: cell-based; conditions: K12ML1410, 18 h, read-out: Minimum Inhibitory Concentration
[40] = system: Proteus vulgaris OX 19; test: as above; type: cell-based; conditions: read-out: Minimum Inhibitory Concentration
[41] = system: kanamycin- and ribostamycin-resistant bacteria; conditions: some kanamycin- and ribostamycin-resistant bacteria; cited from earlier work

SMILES: NC[C@@H](O)C(=O)N[C@@H]1C[C@H](N)[C@@H](O[C@H]2O[C@H](CN)[C@@H](O)[C@H](O)[C@H]2O)[C@H](O)[C@H]1O[C@H]1O[C@H](CO)[C@@H](O)[C@H](N)[C@H]1O [1-N-D-isoserylkanamycin]
- antibacterial activity relative to the DL-form (racemic form) [1]: the same as those of 1-N-DL-isoserylkanamycin
- toxicity relative to the DL-form [2]: the same as those of 1-N-DL-isoserylkanamycin

SMILES: NC[C@H]1O[C@H](O[C@H]2[C@H](O)[C@@H](O[C@H]3O[C@H](CO)[C@@H](O)[C@H](N)[C@H]3O)[C@H](N)C[C@@H]2N)[C@H](O)C[C@@H]1O [3'-Deoxykanamycin]
- susceptibility to / inactivation by phosphotransferase [3]: not susceptible
- activity against Escherichia coli JR66/W677 [4]: inactive
- activity against kanamycin-resistant strains [5]: actually effective

SMILES: NC[C@@H]1CC[C@@H](N)[C@@H](O[C@H]2[C@H](O)[C@@H](O[C@H]3O[C@H](CO)[C@@H](O)[C@H](N)[C@H]3O)[C@H](N)C[C@@H]2N)O1 [DKB, 3',4'-dideoxykanamycin B, reference compound]
- MIC ([6]; Corynebacterium bovis, 1810, 37°C, 18 hours): 3.13 µg/mL (≈ 6.93 µM)
- susceptibility to / inactivation by phosphotransferase [3]: not susceptible
- MIC [7]: 50 µg/mL (≈ 111 µM)
- MIC ([8]; W677, 37°C, 18 hours): 0.2 µg/mL (≈ 0.443 µM)
- MIC [9]: 0.78 µg/mL (≈ 1.73 µM)
- MIC [10]: 1.56 µg/mL (≈ 3.45 µM)
- MIC [11]: 0.78 µg/mL (≈ 1.73 µM)
- MIC [12]: 1.56 µg/mL (≈ 3.45 µM)
- MIC [13]: 1.56 µg/mL (≈ 3.45 µM)
- MIC [14]: 50 µg/mL (≈ 111 µM)
- MIC [15]: 6.25 µg/mL (≈ 13.8 µM)
- MIC [16]: < 0.2 µg/mL
- MIC [17]: 1.56 µg/mL (≈ 3.45 µM)
- MIC [18]: 0.78 µg/mL (≈ 1.73 µM)
- MIC ([19]; GN315, 37°C, 18 hours): > 100 µg/mL
- MIC ([20]; PCI219, 37°C, 18 hours): < 0.2 µg/mL
- activity against Escherichia coli JR66/W677 [4]: inactive
- MIC ([21]; ATCC607, 37°C, 18 hours): 0.39 µg/mL (≈ 0.864 µM)
- inactivation by nucleotidyltransferase [22]: inactivating
- MIC ([23]; K12, 37°C, 18 hours): 0.78 µg/mL (≈ 1.73 µM)
- MIC ([24]; PCI602, 37°C, 18 hours): 0.39 µg/mL (≈ 0.864 µM)
- MIC [25]: 1.56 µg/mL (≈ 3.45 µM)
- MIC [26]: 12.5 µg/mL (≈ 27.7 µM)
- MIC ([27]; NO.12, 37°C, 18 hours): 0.78 µg/mL (≈ 1.73 µM)
- MIC ([28]; 22NO.3038, 37°C, 18 hours): 100 µg/mL (≈ 221 µM)
- MIC ([29]; 37°C, 18 hours): < 0.2 µg/mL
- MIC [30]: < 0.2 µg/mL
- MIC ([31]; 37°C, 18 hours): < 0.2 µg/mL
- MIC [32]: 1.56 µg/mL (≈ 3.45 µM)
- MIC ([33]; NRRLB558, 37°C, 18 hours): < 0.2 µg/mL
- MIC ([34]; PCI1001, 37°C, 18 hours): 6.25 µg/mL (≈ 13.8 µM)
- activity against kanamycin-resistant strains [5]: actually effective
- MIC ([35]; 37°C, 18 hours): 0.39 µg/mL (≈ 0.864 µM)
- MIC ([36]; Pseudomonas aeruginosa, 99, 37°C, 18 hours): 3.13 µg/mL (≈ 6.93 µM)
- MIC ([37]; 37°C, 18 hours): < 0.2 µg/mL
- MIC ([38]; ATCC10702, 37°C, 18 hours): 0.78 µg/mL (≈ 1.73 µM)
- MIC [39]: 1.56 µg/mL (≈ 3.45 µM)
- MIC ([40]; OX19, 37°C, 18 hours): < 0.2 µg/mL

SMILES: NC[C@H]1O[C@H](O[C@H]2[C@H](O)[C@@H](O[C@H]3O[C@H](CO)[C@@H](O)[C@H](N)[C@H]3O)[C@H](N)C[C@@H]2N)[C@H](O)[C@@H](O)[C@@H]1O [KM, kanamycin]
- MIC ([6]; Corynebacterium bovis, 1810, 18 h): 3.13 µg/mL (≈ 6.46 µM)
- MIC [7]: 100 µg/mL (≈ 206 µM)
- MIC ([8]; W677, 18 h): 1.56 µg/mL (≈ 3.22 µM)
- MIC [9]: > 100 µg/mL
- MIC [10]: 50 µg/mL (≈ 103 µM)
- MIC [11]: 3.13 µg/mL (≈ 6.46 µM)
- MIC [12]: 6.25 µg/mL (≈ 12.9 µM)
- MIC [13]: > 100 µg/mL
- MIC [14]: > 100 µg/mL
- MIC [15]: 12.5 µg/mL (≈ 25.8 µM)
- MIC [16]: 0.39 µg/mL (≈ 0.805 µM)
- MIC [17]: 0.78 µg/mL (≈ 1.61 µM)
- MIC [18]: > 100 µg/mL
- MIC ([19]; GN315, 18 h): > 100 µg/mL
- MIC ([20]; PCI219, 18 h): < 0.2 µg/mL
- MIC ([21]; ATCC607, 18 h): 0.78 µg/mL (≈ 1.61 µM)
- inactivation by nucleotidyltransferase [22]: inactivating
- MIC ([23]; K12, 18 h): 1.56 µg/mL (≈ 3.22 µM)
- MIC ([24]; PCI602, 18 h): 0.78 µg/mL (≈ 1.61 µM)
- MIC [25]: 6.25 µg/mL (≈ 12.9 µM)
- MIC [26]: 12.5 µg/mL (≈ 25.8 µM)
- MIC ([27]; NO.12, 18 h): 25 µg/mL (≈ 51.6 µM)
- MIC ([28]; 22NO.3038, 18 h): > 100 µg/mL
- MIC ([29]; 18 h): 0.78 µg/mL (≈ 1.61 µM)
- MIC [30]: < 0.2 µg/mL
- MIC ([31]; 18 h): < 0.2 µg/mL
- MIC [32]: > 100 µg/mL
- MIC ([33]; NRRLB558, 18 h): < 0.2 µg/mL
- MIC ([34]; PCI1001, 18 h): 6.25 µg/mL (≈ 12.9 µM)
- MIC ([35]; 18 h): 1.56 µg/mL (≈ 3.22 µM)
- MIC ([36]; Pseudomonas aeruginosa, 99, 18 h): > 100 µg/mL
- MIC ([37]; 18 h): < 0.2 µg/mL
- MIC ([38]; ATCC10702, 18 h): 1.56 µg/mL (≈ 3.22 µM)
- MIC [39]: 1.56 µg/mL (≈ 3.22 µM)
- MIC ([40]; OX19, 18 h): 0.78 µg/mL (≈ 1.61 µM)

SMILES: NCC[C@H](O)C(=O)N[C@@H]1C[C@H](N)[C@@H](O[C@H]2O[C@H](CN)[C@@H](O)[C@H](O)[C@H]2N)[C@H](O[C@@H]2O[C@H](CO)[C@@H](O)[C@H]2O)[C@H]1O [butirosin B, 1-N-[(S)-4-amino-2-hydroxy-n-butyryl]-ribostamycin]
- activity against resistant bacteria [41]: active

SMILES: NC[C@H](O)C(=O)N[C@@H]1C[C@H](N)[C@@H](O[C@H]2O[C@H](CN)[C@@H](O)[C@H](O)[C@H]2O)[C@H](O)[C@H]1O[C@H]1O[C@H](CO)[C@@H](O)[C@H](N)[C@H]1O [1-N-L-isoserylkanamycin]
- antibacterial activity relative to the DL-form (racemic form) [1]: the same as those of 1-N-DL-isoserylkanamycin
- toxicity relative to the DL-form [2]: the same as those of 1-N-DL-isoserylkanamycin
